The source of these data is patent US20250129091A1, “THIENOPYRROLOTRIAZINE COMPOUNDS, THEIR PREPARATION AND THEIR THERAPEUTIC USE” (Sanofi, priority 2022, published 2025).

Structures can show the parent of a compound that is named as a salt. Where two headings read alike, the source gives them in different places.

The subject of one series is NLRP3 inflammasome. The series can be described thus: IL-1β secretion assay (LPS-primed, nigericin-activated THP-1 cells, MSD readout). The series is classed as cell-based. Particulars: Homo sapiens, read-out: IL1b IC50. The method in brief: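 THP-1 monocytes primed with LPS (10 ng/mL, 3 h, 37 °C), then co-incubated 2 h with serially diluted compound and nigericin 10 μM (final). Supernatant IL-1β measured by MSD electrochemiluminescence immunoassay. IC50 derived from four-parameter logistic fit of % inhibition versus concentration.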

Series [1] in a line: Brain over plasma ratio evaluation. In kind it is in vivo. Particulars: mouse, brain and plasma, iv; female C57B16 mice, single i.v. 1 mg/kg, 0.25 h post dosing, geometric mean of 3 animals. As to the method:
Brain Over Plasma Ratio Evaluation
A solution of 3 mg of compound in a generic vehicle (Glycofurol/solutol/Dextrose 5%: 10%/5%/85%, adjusted at pH3), final concentration 0.2 mg/ml, are stirred overnight at ambient temperature whilst protected from light.
Female C57B16 mice between the ages of 8-12 weeks are administered with the prepared solution, as single intravenous dose of 1 mg/kg into the tail vein with a dose volume of 5 ml/kg. A total of 3 animal replicates are evaluated for each compound utilizing a terminal sampling approach. After 0.25 h post dosing, under anesthesia, 400 μL of blood and the whole brain are collected. Blood sample is centrifuged at 4° C. for 10 minutes at 1500 g; brain is weighted, homogenized using deionized water to give a final ratio of (1/2:w/v). Plasma and brain concentrations are measured by an exploratory LC-MS/MS method.
Individual brain over plasma concentration ratio is calculated for each animal, and geometric mean value is reported.

The subject of another series is TNF-α secretion. The series can be described thus: TNF-α secretion assay (PMA-differentiated THP-1 cells, LPS-triggered, MSD readout). In kind it is cell-based. Particulars: Homo sapiens, LPS 24 h; for inhibition at 3 µM: compound at 3 μM; for inhibition at 10 µM: compound at 10 μM. As to the method: Monocytic THP-1 cells (DSMZ) were maintained in RPMI media (RPMI 1640 Medium (1×) +10% FBS, biowest S181H). Cells were then differentiated at 160,000 cells per well in 96-well flat bottom cell culture plates with RPMI+0.1% Bovine Serum Albumin solution and 0.5 μM phorbol 12-myristate 13-acetate (PMA; Sigma, ref:P8139) overnight at 37° C. Experimental compounds were prepared and added as described above. TNF-α secretion was triggered by the addition of 0.5 μg/mL LPS (invivoGen, tlrl-3pelps) and cells were incubated for 24 h. 2.5 μL supernatant was removed, and TNF-α levels were monitored using an MSD assay (mesoscale, K15049) according to manufacturers' instructions.
IC50 values were calculated from the plot of percentage of inhibition versus the inhibitor concentration by a logistics fit according to: y=A2+(A1−A2)/(1+(x/IC50)^p) where y is the %-inhibition at the inhibitor concentration, x. A1 is the lowest inhibition value, i.e., 0%, and A2 the maximum inhibition value, i.e., 100%. The exponent, p, is the Hill coefficient. The curve fitting was conducted with an internally developed software.

Usually IC50 stands for the concentration at which inhibition is half-maximal. As a reminder, the Kp is tissue or fluid exposure divided by exposure in the circulation. Regarding `CC(C)c1nn(CC(=O)N[C@@H]2CCCN(C3CC3)C2)c(=O)c2cc3cc(Cl)sc3n12.O=C(O)C(F)(F)F` [Example 6, (R)-2-(2-chloro-8-isopropyl-5-oxothieno[3′,2′:4,5]pyrrolo[1,2-d][1,2,4]triazin-6(5H)-yl)-N-(1-cyclopropylpiperidin-3-yl)acetamide 2,2,2-trifluoroacetate], the half-maximal inhibitory concentration (IC50) with NLRP3 inflammasome (THP-1, LPS-primed) was 158 nM. Also, the Kp at 0.25 h in series [1] was found to be 7.58.

As a reminder, the inhibition is the relative decrease from the control value, in per cent. As for `CC(C)c1nn(CC(=O)N[C@@H]2CCCN(C3CCC3)C2)c(=O)c2cc3cc(Cl)sc3n12.O=CO` [Example 10, (R)-2-(2-chloro-8-isopropyl-5-oxothieno[3′,2′:4,5]pyrrolo[1,2-d][1,2,4]triazin-6(5H)-yl)-N-(1-cyclobutylpiperidin-3-yl)acetamide formate], in the series on NLRP3 inflammasome (THP-1, LPS-primed), the IC50 came to 101 nM. For the same molecule, in the series with TNF-α secretion, the inhibition at 3 µM worked out at 3% and the inhibition at 10 µM is -11.9%. For the same molecule, the Kp at 0.25 h in series [1] is 5.84.

For `CC(C)c1nn(CC(=O)N[C@@H]2CCCN(C3CCC3)C2)c(=O)c2cc3ccsc3n12.O=CO` [Example 11, (R)—N-(1-cyclobutylpiperidin-3-yl)-2-(8-isopropyl-5-oxothieno[3′,2′:4,5]pyrrolo[1,2-d][1,2,4]triazin-6(5H)-yl)acetamide formate], the IC50 with NLRP3 inflammasome (THP-1, LPS-primed) amounted to 45 nM. In the series with TNF-α secretion, the inhibition at 3 µM came out at 20.1% and the inhibition at 10 µM was -12.7%. Also, the concentration ratio (Kp) at 0.25 h in series [1] was 3.2.

As to `C=O.CC(C)c1nn(CC(=O)N[C@@H]2CCCN(CC3CC3(F)F)C2)c(=O)c2cc3ccsc3n12` (stereo partly drawn) [Example 18, N-((3R)-1-((2,2-difluorocyclopropyl)methyl)piperidin-3-yl)-2-(8-isopropyl-5-oxothieno [3′,2′:4,5]pyrrolo[1,2-d][1,2,4]triazin-6(5H)-yl)acetamide compound with formaldehyde], the IC50 in the series with NLRP3 inflammasome (LPS-primed) stood at 236 nM. For the same molecule, in the series on TNF-α secretion, the inhibition at 3 µM amounted to 9.6% and the inhibition at 10 µM worked out at 21.6%. For the same molecule, the Kp at 0.25 h in series [1] was 1.56.

`C=O.CC(C)c1nn(CC(=O)N[C@@H]2CCCN(CCO)C2)c(=O)c2cc3ccsc3n12` [Example 19, (R)—N-(1-(2-hydroxyethyl)piperidin-3-yl)-2-(8-isopropyl-5-oxothieno [3′,2′:4,5]pyrrolo[1,2-d][1,2,4]triazin-6(5H)-yl)acetamide compound with formaldehyde]: the IC50 in the series on NLRP3 inflammasome (LPS-primed) was found to be 225 nM. Moreover, in the series with TNF-α secretion, the inhibition at 3 µM came out at 27.7% and the inhibition at 10 µM is -22.7%.

For the molecule `O=C(Cn1nc(C2CC2)n2c(cc3ccsc32)c1=O)N[C@@H]1CCCN(C2CCC2)C1` [Example 20, (R)—N-(1-cyclobutylpiperidin-3-yl)-2-(8-cyclopropyl-5-oxothieno[3′,2′:4,5]pyrrolo[1,2-d][1,2,4]triazin-6(5H)-yl)acetamide], the IC50 in the series with NLRP3 inflammasome (THP-1, LPS-primed) stood at 185 nM. Besides, in the series with TNF-α secretion, the inhibition at 3 µM is -6.1% and the inhibition at 10 µM was -26%.

In the case of `O=C(Cn1nc(C2CC2)n2c(cc3ccsc32)c1=O)N[C@@H]1CCCN(C2CC2)C1` [Example 21, (R)-2-(8-cyclopropyl-5-oxothieno[3′,2′:4,5]pyrrolo[1,2-d][1,2,4]triazin-6(5H)-yl)-N-(1-cyclopropylpiperidin-3-yl)acetamide], the IC50 in the series on NLRP3 inflammasome (THP-1, LPS-primed) is 60 nM. Besides, in the series on TNF-α secretion, the inhibition at 3 µM is 11.7% and the inhibition at 10 µM was found to be 13.5%.

`C[C@H](O)CN1CCC[C@@H](NC(=O)Cn2nc(C3CC3)n3c(cc4ccsc43)c2=O)C1` [Example 22, 2-(8-cyclopropyl-5-oxothieno[3′,2′:4,5]pyrrolo[1,2-d][1,2,4]triazin-6(5H)-yl)-N—((R)-1-((S)-2-hydroxypropyl)piperidin-3-yl)acetamide]: in the series with NLRP3 inflammasome (THP-1, LPS-primed), the IC50 came to 400 nM. In the series with TNF-α secretion, the inhibition at 3 µM is -2.9% and the inhibition at 10 µM is 14.5%.

As for `CC(C)c1nn(CC(=O)N[C@@H]2CCCN(CC(C)(C)O)C2)c(=O)c2cc3ccsc3n12` [Example 23, (R)—N-(1-(2-hydroxy-2-methylpropyl)piperidin-3-yl)-2-(8-isopropyl-5-oxothieno[3′,2′:4,5]pyrrolo[1,2-d][1,2,4]triazin-6(5H)-yl)acetamide formate], the IC50 with NLRP3 inflammasome (THP-1, LPS-primed) was 311 nM. Further, in the series with TNF-α secretion, the inhibition at 3 µM was found to be 1.8% and the inhibition at 10 µM was 3.3%.

As to `CN1CCC[C@@H](NC(=O)Cn2nc(C3CC3)n3c(cc4ccsc43)c2=O)C1` [Example 24, (R)-2-(8-cyclopropyl-5-oxothieno[3′,2′:4,5]pyrrolo[1,2-d][1,2,4]triazin-6(5H)-yl)-N-(1-methylpiperidin-3-yl)acetamide formate], the IC50 in the series with NLRP3 inflammasome (THP-1, LPS-primed) amounted to 2890 nM. Moreover, in the series on TNF-α secretion, the inhibition at 3 µM came to 12% and the inhibition at 10 µM stood at 15.5%.

As to `CC(C)c1nn(CC(=O)N[C@@H]2CCCN(CC3CC3)C2)c(=O)c2cc3ccsc3n12` [Example 28, (R)—N-(1-(cyclopropylmethyl)piperidin-3-yl)-2-(8-isopropyl-5-oxothieno[3′,2′:4,5]pyrrolo [1,2-d][1,2,4]triazin-6(5H)-yl)acetamide formate], the IC50 with NLRP3 inflammasome (THP-1, LPS-primed) was determined as 775 nM. Besides, in the series on TNF-α secretion, the inhibition at 3 µM is 34.4% and the inhibition at 10 µM was -45.5%.

With `CC(C)c1nn(CC(=O)N[C@@H]2CCCN(C3CCC3)C2)c(=O)c2cc3cc(Br)sc3n12` [Example 31, (R)-2-(2-bromo-8-isopropyl-5-oxothieno[3′,2′:4,5]pyrrolo[1,2-d][1,2,4]triazin-6(5H)-yl)-N-(1-cyclobutylpiperidin-3-yl)acetamide 2,2,2-trifluoroacetate], in the series on NLRP3 inflammasome (THP-1, LPS-primed), the IC50 came to 30 nM. For the same molecule, in the series on TNF-α secretion, the inhibition at 3 µM was found to be 10.5% and the inhibition at 10 µM was found to be 32.5%.

For the molecule `CC(C)c1nn(CC(=O)N[C@@H]2CCCN(CCCF)C2)c(=O)c2cc3ccsc3n12.O=CO` [Example 41, (R)—N-(1-(3-fluoropropyl)piperidin-3-yl)-2-(8-isopropyl-5-oxothieno[3′,2′:4,5]pyrrolo[1,2-d][1,2,4]triazin-6(5H)-yl)acetamide formate], in the series on NLRP3 inflammasome (THP-1, LPS-primed), the half-inhibitory concentration (IC50) came to 37 nM. Also, the Kp at 0.25 h in series [1] is 1.56.

For the molecule `CC(C)c1nn(CC(=O)N[C@@H]2CCCN(CC3CC(F)(F)C3)C2)c(=O)c2cc3ccsc3n12.O=CO` [Example 43, (R)—N-(1-((3,3-difluorocyclobutyl)methyl)piperidin-3-yl)-2-(8-isopropyl-5-oxothieno [3′,2′:4,5]pyrrolo[1,2-d][1,2,4]triazin-6(5H)-yl)acetamide formate], the IC50 in the series on NLRP3 inflammasome (THP-1, LPS-primed) stood at 133 nM. Besides, the Kp at 0.25 h in series [1] came out at 0.42.

As for `CC(C)c1nn(CC(=O)NC2CCCN(C(C)(C)C)C2)c(=O)c2cc3cc(Br)sc3n12` (centres unmarked) [Example 59, 2-(4-bromo-12-isopropyl-9-oxo-3-thia-1,10,11-triazatricyclo[6.4.0.02,6]dodeca-2(6),4,7,11-tetraen-10-yl)-N-(1-tert-butyl-3-piperidyl)acetamide], the IC50 with NLRP3 inflammasome (THP-1, LPS-primed) is 34 nM. In series [1], the Kp at 0.25 h came to 1.15.
